According to patent US9328125B2, “Bivalent AMPA receptor positive allosteric modulators” (The Board of Regents of the University of Texas System, priority 2012, dated 2016):
Where two headings read alike, the source gives them in different places.

How the values were obtained:
[1] = test system: morphine physical dependence; assay: Morphine physical dependence, naloxone-precipitated withdrawal; type: in vivo, mice; conditions: 10 mg/kg
Method: (§1) G. Chronic Opioid Tolerance and Dependence.
(§2) To induce chronic opioid tolerance and dependence, mice were treated with morphine (10 mg/kg s.c., given at 8:00 AM and 6:00 PM) for 5 days (Herz and Teschemacher, Experientia 29:64-65, 1973). Control mice received an equal number and volume of injections with saline. Morphine tolerance and naloxone-precipitated withdrawal were evaluated. Haloperidol (0.1-1.0 mg/kg i.p. or p.o.) was given 30 min before the test dose of morphine or naloxone (FIG. 9B and FIG. 10B).

AMPA receptor = assay: Glutamate (100 μM)-evoked calcium influx in DIV9 dissociated rat forebrain neurons; type: cell-based; conditions: for EC50 / Emax (%) / pEC50 (-logEC50): Glutamate (100 μM)-evoked Ca2+ influx; for enhancement of glutamate-evoked calcium influx, in words: glutamate 100 μM, DIV9 dissociated rat forebrain neurons cultured on PND1
Description: Fluorometric readings were taken from each well every 1.7 seconds for 20 seconds before any addition to record baseline value and for 70 seconds after addition of any compound(s) to monitor the induced changes of calcium influx. Each well's peak fluorescence reading after addition of compound(s) represents effect of a certain concentration of a given compound(s) after subtracting the average baseline fluorescence. Peak fluorometric reading from duplicate or triplicate wells was averaged, and represents the effect of a certain concentration on calcium influx after subtracting control value. […] points were fitted with a sigmoidal function (bottom asymptote=100, nHill=1) by using Prism from GraphPad (San Diego, Calif.) to determine the compound's EC50 (affinity or potency). Each compound's EC50 was summarized from at least 3 individual experiments and presented as the mean±SE.

[2] = test system: PCP-induced cleaved caspase-3 immunoreactive neurons in frontal cortex (M2/1); assay: Image analysis of cleaved caspase-3 immunoreactive neurons in frontal cortex (M2/1) of PND7 rats exposed to PCP; type: in vivo, rat
Method: Cleaved caspase-3 immunoreactive neurons, 8 hrs on PND7 after Saline (A) or PCP (10 mg/kg, sc, B-E) without (A-B) or with (C-E) pretreatment (30 min prior to PCP) of HJC-1-22 (C, 0.1 mg/kg; D, 1 mg/kg; E, 10 mg/kg, sc) were shown.
C. Image Analysis of Cleaved Caspase-3 Immunoreactive Neurons
PCP induces developmental neuroapoptosis via caspase-3 activation in vulnerable neurons (Wang et al., Neuropsychopharmacology 32(5): 1178-1194, 2007). Caspase-3 activation in vivo can be observed by immunohistochemistry with specific antibodies against cleaved caspase-3 protein and quantified by image analysis of cleaved caspase-3 immunoreactive neurons in specific brain region(s) or sub-region(s) in developing brain. Compounds showing significant AMPAR PAM effects on glutamate-induced calcium influx in HEK293 expressing hGluA1i/3i and significant preventive effect on PCP-induced caspase-3 enzyme activities in organotypic slices were further defined their abilities to block PCP-induced apoptosis in vivo.
PND7 rat pups were used in the in vivo studies. […]
In step 1, each candidate was tested in two (n=2) individual experiments by using PND7 rat pups from 2 different liters. […] The activity percentages (%) of each dose vs. PCP were calculated to estimate its IC50 which was used to determine its in vivo effective dose range for the step 2 study. […]

[3] = test system: PCP-induced caspase-3 activity; assay: PCP-induced caspase-3 enzyme activity in organotypic cortical-striatal slices, modulation of the (±)AMPA effect; type: cell-based, rat; conditions: for modulation of AMPA effect on PCP-induced caspase-3 activity, in words: AMPA 1 μM, FIG. 2A-2B; for IC50: Rattus norvegicus
Method: The inventors have designed and chemically synthesized a class of new bivalent AMPAR ligands (see examples in Table 1). […] The neuroprotective effect of (±)APMA on PCP-induced caspase-3 activities was potentiated by cyclothiazide (CTZ) and aniracetam, two existing AMPAR ligands (approximate IC50 1-3 μM, FIG. 2A for CTZ).
B. Measurement of Caspase-3 Enzyme Activities
Compounds showing significant AMPAR PAM effects on glutamate-induced calcium influx in HEK293 expressing hGluA1i/3i were further tested for their ability to prevent PCP-induced caspase-3 activation in our established in vitro organotypic slice model (Wang et al., Neuropsychopharmacology 32(5): 1178-1194, 2007). Initial screening includes two steps. In step one, all candidates were tested in a single experiment to determine an appropriate approximate concentration range for its effect on PCP-induced caspase-3 activity by adding eight serial concentrations of the compound at log intervals (0, 0.0001-10 μM). Compounds showing promising ˜IC50 (<10 μM) and slope (0.8-1.20) was further screened in a paradigm in which each selected compound was tested in 3 independent experiments to determine its IC50 and slope values by adding eight serial concentrations of the compound at approximately half-log intervals. For all initial screening experiments, rat organotypic brain slice cultures were prepared as previously described (Wang et al., Neuropsychopharmacology 32(5): 1178-1194, 2007). All experiments were executed on DIV10. In each experiment, the slices were pre-treated with the solution vehicle (0.1% DMSO) or 6 serial concentrations of the new compounds for 15 min, followed with (±)APMA (1 μM) (or its vehicle, 0.1% DMSO) for another 15 min. PCP (3 μM) or its vehicle (saline) was added and incubation continued for 6 hrs. The superficial cortical layers of each treated slice were harvested with the aid of an inverted microscopy and placed into ice-cold lysis buffer. Supernatants were collected and caspase-3 activity measured as described previously (Wang et al., Neuropsychopharmacology 32(5): 1178-1194, 2007). Caspase-3 activity was measured over 60 min and calculated as the difference between the substrate degradation rate in samples containing and those not containing Z-DEVD-FMK, a selective caspase-3 inhibitor. Data are expressed as DEVDase activity (AFC pmoles/mg protein/60 min). Protein was measured by the bicinchoninic acid (BCA) technique (Smith et al., 1985), using bovine serum albumin as standards. Each activity measurement was averaged from duplicate samples. Baseline activity (saline treated) was subtracted from all treatments. The caspase-3 activity of in slices incubated with PCP alone served as a positive control. Each compound's activity was normalized to the protective effect of (±)AMPA against PCP (100%). IC50 and slope values were analyzed and determined with the SigmaPlot four-parameter equation as described previously (Petukhov et al., J Med Chem 47(12): 3009-3018, 2004). Each compound's IC50 and slope values were determined from data in at least 3 individual experiments. Group data is reported as mean±SEM.

morphine tolerance = assay: Morphine tolerance, tail-flick test; type: in vivo, mouse; conditions: 10 mg/kg
Method: The tail-flick test was used to determine basal nociception and morphine antinociception as described previously (Wang et al., J Neurosci 21:1779-86, 2001; Tang et al., J Pharmacol Exp Ther 317:901-909, 2006). In brief, One third of the distal portion of mouse tail was immersed into a water bath maintained at 52° C., and the latency of a quick tail-flick response was recorded. Morphine-antinociception was evaluated 30 min after a test dose of morphine (10 mg/kg s.c. unless otherwise stated) and is expressed as the percentage of maximal possible effect (MPE). MPE %=100%×(postdrug latency−predrug latency)/(cutoff−predrug latency). A 12-s cutoff time was used to prevent tissue damage (FIG. 9A and FIG. 10A).
as §1, §2

[4] = organotypic slices, (±)AMPA 1 μM, PCP 3 μM, read-out: IC50, modulation of (±)AMPA effect on PCP-induced caspase-3 activity
[5] = existing AMPAR ligands, FIG. 2A for CTZ, read-out: approximate IC50, potentiation of neuroprotective effect of (±)AMPA on PCP-induced caspase-3 activities

Row | SMILES | EC50 (AMPA receptor) [nM] | Emax (%) (AMPA receptor) | pEC50 (-logEC50) (AMPA receptor) | enhancement of glutamate-evoked calcium influx, in words (AMPA receptor) | modulation of AMPA effect on PCP-induced caspase-3 activity, in words ([3]; PCP 3 μM) | also measured
1 | CC(C)S(=O)(=O)NC[C@H](C)c1ccc(-c2ccnc(C(=O)N3CCCC3)c2)cc1 [HJC-1-22, Propane-2-sulfonic acid (2-{4-[2-(pyrrolidine-1-carbonyl)-pyridin-4-yl]phenyl}-propyl)-amide] | 6.53 | 170.0 | 8.28 | enhanced glutamate (100 μM)-evoked calcium influx in a concentration-dependent manner | displayed more potent activity than LY451395 | reversal of morphine physical dependence ([1]; FIG. 9B): partially reversed physical dependence; prevention of morphine physical dependence ([1]; FIG. 10B): partially prevented physical dependence; prevention of PCP (10 mg/kg)-induced caspase-3 activation in frontal cortex ([2]; 10 mg/kg sc, 30 min prior to PCP (10 mg/kg, sc)): 85%; effect on PCP-induced cleaved caspase-3 immunoreactive neurons in frontal cortex (M2/1), in words ([2]; 0.1, 1, 10 mg/kg sc, 30 min prior to PCP, 8 hrs): significantly reduced PCP-induced cleaved caspase-3 immunoreactive neurons; IC50 [3, 4]: 15 nM; reversal of established morphine tolerance (morphine tolerance; FIG. 9A): reversed established morphine tolerance; prevention of development of morphine tolerance (morphine tolerance; FIG. 10A): prevented the development of morphine tolerance
2 | CC(C)S(=O)(=O)NC[C@H](C)c1ccc(-n2ccc3ncccc32)cc1 [HJC0229, Propane-2-sulfonic acid [2-(4-pyrrolo[3,2-b]pyridin-1-yl-phenyl)-propyl]amide] | 8.76 | 168.9 | 8.06 | – | – | –
3 | CC(C)S(=O)(=O)NC[C@H](C)c1ccc(-n2ccc3cc(C(=O)N4CCCCC4)ccc32)cc1 [HJC-1-24, Propane-2-sulfonic acid (2-{4-[5-(piperidine-1-carbonyl)-indol-1-yl]-phenyl}-propyl)amide] | – | – | – | – | displayed more potent activity than LY451395 | IC50 [3, 4]: 5 nM; fold more potent than CTZ (IC50, caspase-3 activity) ([3]; versus CTZ): at least 200 fold
4 | CC(C)S(=O)(=O)NC[C@H](C)c1ccc(-n2ccc3cc(C(=O)N4CCCC4)ccc32)cc1 [HJC0210, Propane-2-sulfonic acid (2-{4-[5-(pyrrolidine-1-carbonyl)-indol-1-yl]-phenyl}-propyl)amide] | 0.06 | 157.5 | 10.21 | enhanced glutamate (100 μM)-evoked calcium influx in a concentration-dependent manner | – | –
5 | COc1ccc(C(=O)N2CCCC2=O)cc1 [aniracetam, reference compound] | – | – | – | – | – | IC50 [3, 5]: 1000 to 3000 nM
6 | CC(C)S(=O)(=O)NC[C@H](C)c1ccc(-c2ccc(CCN3CCCC3=O)cc2)cc1 [HJC0173, Propane-2-sulfonic acid (2-{4′-[2-(2-oxo-pyrrolidin-1-yl)-ethyl]-biphenyl-4-yl}-propyl)amide] | 4.02 | 127.1 | 8.39 | – | – | –
7 | NS(=O)(=O)c1cc2c(cc1Cl)NC(C1CC3C=CC1C3)NS2(=O)=O (centres unmarked) [CTZ, cyclothiazide, reference compound] | – | – | – | – | concentration-dependent fashion | IC50 [3, 5]: 1000 to 3000 nM
8 | CC(C)S(=O)(=O)NC[C@H](C)c1ccc(-c2ccc(CCNS(C)(=O)=O)cc2)cc1 [LY451395, reference compound] | – | – | – | enhanced glutamate (100 μM)-evoked calcium influx in a concentration-dependent manner | – | –
